From patent US11034725B2, “Compositions and methods for treating cardiovascular disease” (Genentech, Inc., priority 2016, dated 2021)
Like-named read-outs stand apart in the source and are kept apart here. Numbered stars: 1 amine (or outer) side, 2 acyl side, 3 side chain; on linkers, the order of the positions; unused ones are H or OH. Bridge positions count the residues as written; N and C are the ends. Square brackets hold non-standard residues; d marks the D form. Peptide text beside a SMILES is read from it. * marks the point of attachment. Trp(6-Br) = N[C@@H](Cc1c[nH]c2cc(Br)ccc12)C(=O)O; Butanoyl(4-(4-HOPh)) = O=C(CCCc1ccc(O)cc1)*; Dihydrocaffeoyl = O=C(CCc1ccc(O)c(O)c1)*; X9 = O=C([C@@H]1C(O)CCN1[*:1])[*:2]; X17 = O=C([C@H]1C[C@@H]1c1cccnc1)*; hArg = N=C(N)NCCCC[C@H](N)C(=O)O; X8 = O=C(c1ccc(N2CCOCC2)nc1)*; X42 = O=C(c1ccc2cc[nH]c2c1)*; X25 = COc1cc(CCC(=O)*)ccc1O; X29 = Nc1ccc(CCC(=O)*)cc1; X30 = O=C(CCc1cccc(O)c1)*; X35 = Nc1ccc(CCC(=O)*)cn1; Pentanoyl = CCCCC(=O)*

Columns and labels:
[1] = tested on: His-EGF(A)-Fc; assay: His-EGF(A)-Fc TR-FRET counterscreen
[2] = molecular target: T1, PCSK9Δhelix (Homo sapiens, UniProt Q8NBP7); assay: PCSK9Δhelix/Ab20 TR-FRET binding assay
T1 construct: Human PCSK9 construct M1-Q692 with an engineered TEV site (residue deletion Y166, R167); made in house; host or cells: CHO
T1 sequence (Q8NBP7 with tags, fused parts or gaps limits assumed): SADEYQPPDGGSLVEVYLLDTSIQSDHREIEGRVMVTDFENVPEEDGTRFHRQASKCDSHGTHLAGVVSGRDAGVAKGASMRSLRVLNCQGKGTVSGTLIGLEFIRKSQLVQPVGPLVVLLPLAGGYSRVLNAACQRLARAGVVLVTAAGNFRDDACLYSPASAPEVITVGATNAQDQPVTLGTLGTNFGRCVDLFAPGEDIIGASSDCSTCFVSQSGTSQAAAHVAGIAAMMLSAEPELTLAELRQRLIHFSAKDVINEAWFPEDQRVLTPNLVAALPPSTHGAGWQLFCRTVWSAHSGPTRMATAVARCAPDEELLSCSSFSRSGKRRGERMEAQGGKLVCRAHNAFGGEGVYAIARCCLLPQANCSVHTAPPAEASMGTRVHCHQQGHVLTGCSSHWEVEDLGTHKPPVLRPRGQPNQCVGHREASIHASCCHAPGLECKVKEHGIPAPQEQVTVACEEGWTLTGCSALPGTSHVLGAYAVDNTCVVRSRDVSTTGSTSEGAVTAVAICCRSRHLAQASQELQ
T1 sequence (Q8NBP7 31-152 partner limits assumed): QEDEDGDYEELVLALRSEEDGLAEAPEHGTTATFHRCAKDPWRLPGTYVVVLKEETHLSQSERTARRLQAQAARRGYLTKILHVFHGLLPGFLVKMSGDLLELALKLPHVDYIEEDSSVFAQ

[3] = molecular target: PCSK9 (Homo sapiens, UniProt Q8NBP7); assay: PCSK9/EGF(A) TR-FRET binding assay
Chain of PCSK9 (Q8NBP7 153-692): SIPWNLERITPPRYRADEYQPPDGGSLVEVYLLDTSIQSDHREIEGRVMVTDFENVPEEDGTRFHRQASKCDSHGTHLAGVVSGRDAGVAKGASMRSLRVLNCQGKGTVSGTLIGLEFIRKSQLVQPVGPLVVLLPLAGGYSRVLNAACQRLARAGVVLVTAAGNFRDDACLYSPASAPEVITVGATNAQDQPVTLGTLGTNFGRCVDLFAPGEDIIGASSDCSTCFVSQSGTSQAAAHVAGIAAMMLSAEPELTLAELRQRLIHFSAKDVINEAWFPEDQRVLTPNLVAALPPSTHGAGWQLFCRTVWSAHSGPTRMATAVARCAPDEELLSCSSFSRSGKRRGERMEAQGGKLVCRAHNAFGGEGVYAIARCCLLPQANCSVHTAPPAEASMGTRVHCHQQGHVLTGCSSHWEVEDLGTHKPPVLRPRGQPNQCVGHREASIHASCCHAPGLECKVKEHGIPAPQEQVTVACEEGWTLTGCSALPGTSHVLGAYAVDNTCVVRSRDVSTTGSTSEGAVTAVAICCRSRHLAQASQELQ
Chain of PCSK9 (Q8NBP7 31-152 partner limits assumed): as the sequence (Q8NBP7 31-152 partner limits assumed) above

[4] = TR-FRET counterscreen, Table 8E, additional compounds
[5] = TR-FRET, Table 8E, additional compounds, read-out: PCSK9/EGF(A) IC50
[6] = TR-FRET, Table 8E, additional compounds, read-out: PCSK9Δhelix/Ab20 IC50

Structure (SMILES)	IC50 [3, 5] [µM]	IC50 [2, 6] [µM]	further results
CC(=O)N[C@H](C(=O)N[C@H](C(=O)N[C@@H](Cc1ccccc1)C(=O)N[C@H](C(=O)N[C@@H](CO)C(=O)N[C@@H](Cc1c[nH]c2ccccc12)C(=O)N[C@@H](CCC(=O)O)C(=O)N[C@@H](CCC(=O)O)C(=O)N[C@@H](Cc1ccc(O)cc1)C(=O)N[C@@H](CC(C)C)C(=O)N[C@@H](CC(=O)O)C(=O)N[C@@H](Cc1c[nH]c2ccccc12)C(=O)N[C@H](C(=O)NCC(=O)N[C@@H](CO)C(=O)NCC(=O)N[C@H]1CSSC[C@@H](C(N)=O)NC(=O)CNC(=O)[C@H](CCC(N)=O)NC(=O)[C@H](CO)NC(=O)CNC(=O)[C@H](C(C)C)NC(=O)[C@H](CCCNC(=N)N)NC(=O)[C@H](CCCCN)NC(=O)[C@H](CC(C)C)NC(=O)[C@H](CC(N)=O)NC(=O)[C@H](Cc2c[nH]c3ccccc23)NC1=O)C(C)C)[C@@H](C)O)C(C)C)[C@@H](C)O [Compound 12] (Ac-TVFTSWEEYLDWVGSGCWNLKRVGSQGC-NH2; disulfide 17-28)			IC50 ([1]; counterscreen, Example 7): > 50 µM
CC(=O)N[C@H](C(=O)N[C@H](C(=O)N[C@@H](Cc1ccccc1)C(=O)N[C@H](C(=O)N[C@@H](CO)C(=O)N[C@@H](Cc1c[nH]c2ccccc12)C(=O)N[C@@H](CCC(=O)O)C(=O)N[C@@H](CCC(=O)O)C(=O)N[C@@H](Cc1ccc(O)cc1)C(=O)N[C@@H](CC(C)C)C(=O)N[C@@H](CC(=O)O)C(=O)N[C@@H](Cc1c[nH]c2ccccc12)C(=O)N[C@H](C(=O)NCCCCCCC(=O)N[C@@H](CCCCN)C(=O)N[C@@H](CC(C)C)C(=O)N[C@@H](Cc1c[nH]c2ccccc12)C(=O)N[C@@H](CC(N)=O)C(=O)N[C@@H](CC(C)C)C(=O)NCC(=O)N[C@@H](CCCNC(=N)N)C(=O)N[C@H](C(N)=O)C(C)C)C(C)C)[C@@H](C)O)C(C)C)[C@@H](C)O [Compound 16]			IC50 ([2]; TR-FRET, Example 7, read-out: PCSK9Δhelix/Ab20 IC50): 0.028 µM; IC50 ([1]; counterscreen, Example 7): > 50 µM
CC[C@H](C)[C@@H]1NC(=O)[C@H](CCCNC(=N)N)NC(=O)[C@H](CCC(N)=O)NC(=O)[C@H](CC(C)C)NC(=O)[C@H](CC(N)=O)NC(=O)[C@H](Cc2c[nH]c3ccccc23)NC(=O)[C@@H]2C(O)CCN2C(=O)[C@H](CC(C)C)NC(=O)[C@H](CCCNC(=N)N)NC(=O)[C@@H](NC(=O)CNC(=O)[C@H](CO)NC(C)=O)CSSC[C@@H](C(N)=O)NC(=O)[C@@H]2CCCN2C(=O)[C@H](CC(C)C)NC(=O)CNC1=O (some centres unmarked) [Compound 37] (Ac-SGCRL[X9]WNLQRIGLPC-NH2; disulfide 3-16)			IC50 ([1]; TR-FRET counterscreen, Table 8D, * = some inhibition at highest concentrations, not sufficient to fit an IC50): > 50 µM
CCCCC(=O)N[C@@H](Cc1c[nH]c2cc(Br)ccc12)C(=O)N[C@@H](CC(N)=O)C(=O)N[C@@H](CC(C)C)C(=O)N[C@H](C(=O)N[C@@H](CCCNC(=N)N)C(=O)N[C@H](C(=O)NCC(=O)N[C@@H](CC(C)C)C(=O)N[C@H](C(=O)N[C@@H](CCCNC(=N)N)C(N)=O)[C@@H](C)O)[C@@H](C)CC)C(C)C [Compound 187] (Pentanoyl-[Trp(6-Br)]NLVRIGLTR-NH2)			IC50 [1, 4]: 38 µM
CC[C@H](C)[C@H](NC(=O)[C@H](CCCCNC(=N)N)NC(=O)[C@@H](NC(=O)[C@H](CC(C)C)NC(=O)[C@H](CC(N)=O)NC(=O)[C@H](Cc1c[nH]c2ccccc12)NC(=O)CCc1ccc(N)nc1)C(C)C)C(=O)NCC(=O)N[C@@H](CC(C)C)C(=O)N[C@@H](CC(C)C)C(=O)N[C@@H](CCCNC(=N)N)C(N)=O [Compound 216] (X35-WNLV[hArg]IGLLR-NH2)	6	0.3	
CC[C@H](C)[C@H](NC(=O)[C@H](CCCCNC(=N)N)NC(=O)[C@@H](NC(=O)[C@H](CC(C)C)NC(=O)[C@H](CC(N)=O)NC(=O)[C@H](Cc1c[nH]c2ccccc12)NC(=O)CCc1cccc(O)c1)C(C)C)C(=O)NCC(=O)N[C@@H](CC(C)C)C(=O)N[C@@H](CC(C)C)C(=O)N[C@@H](CCCNC(=N)N)C(N)=O [Compound 217] (X30-WNLV[hArg]IGLLR-NH2)	4.1	0.39	
CC[C@H](C)[C@H](NC(=O)[C@H](CCCCNC(=N)N)NC(=O)[C@@H](NC(=O)[C@H](CC(C)C)NC(=O)[C@H](CC(N)=O)NC(=O)[C@H](Cc1c[nH]c2ccccc12)NC(=O)CCc1ccc(N)cc1)C(C)C)C(=O)NCC(=O)N[C@@H](CC(C)C)C(=O)N[C@@H](CC(C)C)C(=O)N[C@@H](CCCNC(=N)N)C(N)=O [Compound 218] (X29-WNLV[hArg]IGLLR-NH2)	5	0.26	
CC[C@H](C)[C@H](NC(=O)[C@H](CCCCNC(=N)N)NC(=O)[C@@H](NC(=O)[C@H](CC(C)C)NC(=O)[C@H](CC(N)=O)NC(=O)[C@H](Cc1c[nH]c2ccccc12)NC(=O)c1ccc(N2CCOCC2)nc1)C(C)C)C(=O)NCC(=O)N[C@@H](CC(C)C)C(=O)N[C@@H](CC(C)C)C(=O)N[C@@H](CCCNC(=N)N)C(N)=O [Compound 219] (X8-WNLV[hArg]IGLLR-NH2)	9.9	0.68	
CC[C@H](C)[C@H](NC(=O)[C@H](CCCCNC(=N)N)NC(=O)[C@@H](NC(=O)[C@H](CC(C)C)NC(=O)[C@H](CC(N)=O)NC(=O)[C@H](Cc1c[nH]c2ccccc12)NC(=O)CCCc1ccc(O)cc1)C(C)C)C(=O)NCC(=O)N[C@@H](CC(C)C)C(=O)N[C@@H](CC(C)C)C(=O)N[C@@H](CCCNC(=N)N)C(N)=O [Compound 220] ({Butanoyl(4-(4-HOPh))}-WNLV[hArg]IGLLR-NH2)	37	0.91	
CC[C@H](C)[C@H](NC(=O)[C@H](CCCCNC(=N)N)NC(=O)[C@@H](NC(=O)[C@H](CC(C)C)NC(=O)[C@H](CC(N)=O)NC(=O)[C@H](Cc1c[nH]c2ccccc12)NC(=O)c1ccc2cc[nH]c2c1)C(C)C)C(=O)NCC(=O)N[C@@H](CC(C)C)C(=O)N[C@@H](CC(C)C)C(=O)N[C@@H](CCCNC(=N)N)C(N)=O [Compound 222] (X42-WNLV[hArg]IGLLR-NH2)	21	1.4	
CC[C@H](C)[C@H](NC(=O)[C@H](CCCCNC(=N)N)NC(=O)[C@@H](NC(=O)[C@H](CC(C)C)NC(=O)[C@H](CC(N)=O)NC(=O)[C@H](Cc1c[nH]c2ccccc12)NC(=O)[C@H](N)Cc1ccc(O)cc1)C(C)C)C(=O)NCC(=O)N[C@@H](CC(C)C)C(=O)N[C@@H](CC(C)C)C(=O)N[C@@H](CCCNC(=N)N)C(N)=O [Compound 223] (H-[dY]WNLV[hArg]IGLLR-NH2)	21	1.4	
CC[C@H](C)[C@H](NC(=O)[C@H](CCCCNC(=N)N)NC(=O)[C@@H](NC(=O)[C@H](CC(C)C)NC(=O)[C@H](CC(N)=O)NC(=O)[C@H](Cc1c[nH]c2ccccc12)NC(=O)CCc1ccc(O)c(O)c1)C(C)C)C(=O)NCC(=O)N[C@@H](CC(C)C)C(=O)N[C@@H](CC(C)C)C(=O)N[C@@H](CCCNC(=N)N)C(N)=O [Compound 224] (Dihydrocaffeoyl-WNLV[hArg]IGLLR-NH2)	7	0.53	
CC[C@H](C)[C@H](NC(=O)[C@H](CCCCNC(=N)N)NC(=O)[C@@H](NC(=O)[C@H](CC(C)C)NC(=O)[C@H](CC(N)=O)NC(=O)[C@H](Cc1c[nH]c2ccccc12)NC(=O)[C@H]1C[C@@H]1c1cccnc1)C(C)C)C(=O)NCC(=O)N[C@@H](CC(C)C)C(=O)N[C@@H](CC(C)C)C(=O)N[C@@H](CCCNC(=N)N)C(N)=O [Compound 225] (X17-WNLV[hArg]IGLLR-NH2)	27	1.8	
CC[C@H](C)[C@H](NC(=O)[C@H](CCCCNC(=N)N)NC(=O)[C@@H](NC(=O)[C@H](CC(C)C)NC(=O)[C@H](CC(N)=O)NC(=O)[C@H](Cc1c[nH]c2ccccc12)NC(=O)[C@@H](N)Cc1ccc(O)cc1)C(C)C)C(=O)NCC(=O)N[C@@H](CC(C)C)C(=O)N[C@@H](CC(C)C)C(=O)N[C@@H](CCCNC(=N)N)C(N)=O [Compound 226] (H-YWNLV[hArg]IGLLR-NH2)	6.2	0.35	
CC[C@H](C)[C@H](NC(=O)[C@H](CCCCNC(=N)N)NC(=O)[C@@H](NC(=O)[C@H](CC(C)C)NC(=O)[C@H](CC(N)=O)NC(=O)[C@H](Cc1c[nH]c2ccccc12)NC(=O)CCc1ccc(O)c(OC)c1)C(C)C)C(=O)NCC(=O)N[C@@H](CC(C)C)C(=O)N[C@@H](CC(C)C)C(=O)N[C@@H](CC(N)=O)C(N)=O [Compound 238] (X25-WNLV[hArg]IGLLN-NH2)	7.7	0.33	
CC[C@H](C)[C@H](NC(=O)[C@H](CCCCNC(=N)N)NC(=O)[C@@H](NC(=O)[C@H](CC(C)C)NC(=O)[C@H](CC(N)=O)NC(=O)[C@H](Cc1c[nH]c2ccccc12)NC(=O)CCc1ccc(O)c(OC)c1)C(C)C)C(=O)NCC(=O)N[C@@H](CCC(N)=O)C(=O)N[C@@H](CCCNC(=N)N)C(N)=O [Compound 239] (X25-WNLV[hArg]IGQR-NH2)			IC50 [3]: 32 µM; IC50 ([2]; PCSK9Δhelix/Ab20 IC50, TR-FRET, Table 8E, additional compounds): 1.2 µM
CC[C@H](C)[C@H](NC(=O)[C@H](CCCCNC(=N)N)NC(=O)[C@@H](NC(=O)[C@H](CC(C)C)NC(=O)[C@H](CC(N)=O)NC(=O)[C@H](Cc1c[nH]c2ccccc12)NC(=O)CCc1ccc(O)c(OC)c1)C(C)C)C(=O)NCC(=O)N[C@@H](CC(N)=O)C(=O)N[C@@H](CCCNC(=N)N)C(N)=O [Compound 240] (X25-WNLV[hArg]IGNR-NH2)	31	0.92	
CC[C@H](C)[C@@H]1NC(=O)[C@H](CCCNC(=N)N)NC(=O)[C@H](CCC(N)=O)NC(=O)[C@H](CC(C)C)NC(=O)[C@H](CC(N)=O)NC(=O)[C@H](Cc2c[nH]c3ccccc23)NC(=O)[C@@H]2C(O)CCN2C(=O)[C@H]([C@@H](C)CC)NC(=O)[C@H](Cc2ccccc2)NC(=O)[C@@H](NC(=O)CNC(=O)[C@H](CO)NC(C)=O)CSSC[C@@H](C(N)=O)NC(=O)[C@H](CC(C)C)NC(=O)[C@H](CC(C)C)NC(=O)CNC1=O (some centres unmarked) [Compound 242] (Ac-SGCFI[X9]WNLQRIGLLC-NH2; disulfide 3-16)			IC50 [1, 4]: ≥ 50 µM
